From patent US20260285849A1, “METHYLOPHIOPOGONONE A DERIVATIVE, AND PREPARATION AND USE THEREOF” (INSTITUTE OF MATERIA MEDICA, CHINESE ACADEMY OF MEDICAL …, priority 2022, published 2026)

Experiments:
Type in all cases: in vivo
[1] = test system: mice with hypertensive heart disease induced by angiotensin II (AngII); assay: AngII-induced hypertensive heart disease mouse model: echocardiogram; details: left ventricle, day 14
Protocol: After male C57BL/6 mice were acclimated to the environment, they were randomly divided into 10 groups, namely the blank control group, the AngII model group, the AngII+telmisartan 10 mg/kg positive control group, the AngII+spironolactone 20 mg/kg positive control group, the AngII+Formula I (0.1, 0.5, 2 mg/kg) groups, and the AngII+Formula II (0.1, 0.5, 2 mg/kg) groups. The mice in the drug administration groups were intragastrically administered the corresponding doses of Formula I and Formula II compounds once a day at the same time. The mice in the positive control groups were intragastrically administered the corresponding doses of telmisartan and spironolactone once a day. The mice in the blank control group and the model group were given the same amount of solvent (0.5% CMC-Na solution). The administration volume was 10 mL/kg, and the administration was continuous for 14 days.
From the 1st to the 13th day of drug administration, AngII modeling was carried out. The mice in the blank control group were subcutaneously injected with normal saline, and the mice in the other groups were subcutaneously injected with 1.44 mg/kg of AngII (modeling was carried out 2 h after drug administration), for a total of 13 times.
Echocardiogram detection: On the 14th day of drug administration (after 13 times of AngII modeling), 5 animals were randomly selected from each group. After anesthesia and fixation, the chest hair was shaved, and a small amount of coupling agent was applied to the chest. The Vevo 770 Imaging System, a small animal ultrasonic real-time imaging system, was used for echocardiogram examination. All echocardiogram indexes of the animals were continuously measured for 3 cardiac cycles, and the average value was taken.

[2] = test system: mice with hypertensive heart disease induced by angiotensin II (AngII); assay: AngII-induced hypertensive heart disease mouse model: serum BNP (ELISA)
Protocol: After male C57BL/6 mice were acclimated to the environment, they were randomly divided into 10 groups, namely the blank control group, the AngII model group, the AngII+telmisartan 10 mg/kg positive control group, the AngII+spironolactone 20 mg/kg positive control group, the AngII+Formula I (0.1, 0.5, 2 mg/kg) groups, and the AngII+Formula II (0.1, 0.5, 2 mg/kg) groups. The mice in the drug administration groups were intragastrically administered the corresponding doses of Formula I and Formula II compounds once a day at the same time. The mice in the positive control groups were intragastrically administered the corresponding doses of telmisartan and spironolactone once a day. The mice in the blank control group and the model group were given the same amount of solvent (0.5% CMC-Na solution). The administration volume was 10 mL/kg, and the administration was continuous for 14 days. From the 1st to the 13th day of drug administration, AngII modeling was carried out. The mice in the blank control group were subcutaneously injected with normal saline, and the mice in the other groups were subcutaneously injected with 1.44 mg/kg of AngII (modeling was carried out 2 h after drug administration), for a total of 13 times. Detection of myocardial hypertrophy/heart failure biomarkers: After the experiment, the animals were sacrificed by enucleation to obtain blood. The blood was left to stand at room temperature for 2 hours, and then centrifuged at 3500 rpm for 20 minutes to separate the serum. The content of serum BNP was determined according to the instructions of the ELISA kit.

[3] = test system: mice with hypertensive heart disease induced by angiotensin II (AngII); assay: AngII-induced hypertensive heart disease mouse model: serum cTn-T and CK-MB (ELISA)
Protocol: After male C57BL/6 mice were acclimated to the environment, they were randomly divided into 10 groups, namely the blank control group, the AngII model group, the AngII+telmisartan 10 mg/kg positive control group, the AngII+spironolactone 20 mg/kg positive control group, the AngII+Formula I (0.1, 0.5, 2 mg/kg) groups, and the AngII+Formula II (0.1, 0.5, 2 mg/kg) groups. The mice in the drug administration groups were intragastrically administered the corresponding doses of Formula I and Formula II compounds once a day at the same time. The mice in the positive control groups were intragastrically administered the corresponding doses of telmisartan and spironolactone once a day. The mice in the blank control group and the model group were given the same amount of solvent (0.5% CMC-Na solution). The administration volume was 10 mL/kg, and the administration was continuous for 14 days. From the 1st to the 13th day of drug administration, AngII modeling was carried out. The mice in the blank control group were subcutaneously injected with normal saline, and the mice in the other groups were subcutaneously injected with 1.44 mg/kg of AngII (modeling was carried out 2 h after drug administration), for a total of 13 times. Detection of serum biomarkers of myocardial injury: After the experiment, the animals were sacrificed by enucleation to obtain blood. The blood was left to stand at room temperature for 2 hours, and then centrifuged at 3500 rpm for 20 minutes to separate the serum. The contents of serum cardiac troponin cTn-T and myocardial enzyme CK-MB were determined according to the instructions of the ELISA kit.

[4] = 0.1 mg/kg intragastric once a day
[5] = 0.5 mg/kg intragastric once a day
[6] = 2 mg/kg intragastric once a day
[7] = 0.1 mg/kg intragastric once a day 14 days
[8] = 0.5 mg/kg intragastric once a day 14 days
[9] = 2 mg/kg intragastric once a day 14 days
[10] = 20 mg/kg intragastric once a day
[11] = 20 mg/kg intragastric once a day 14 days
[12] = 10 mg/kg intragastric once a day
[13] = 10 mg/kg intragastric once a day 14 days

Cc1c(O)cc(O)c2c(=O)c(Cc3ccc4c(c3)OCO4)coc12 [Formula II, 3-(benzo[d][1,3]dioxol-5-ylmethyl)-5,7-dihydroxy-8-methyl-4H-chromen-4-one]
Post-diastolic posterio rwall thickness [1, 4]: 0.72 ± 0.08 mm
Posterior wall thickness in systole [1, 4]: 0.91 ± 0.10 mm
Post-diastolic posterio rwall thickness [1, 5]: 0.69 ± 0.06 mm
Posterior wall thickness in systole [1, 5]: 0.87 ± 0.04 mm
Post-diastolic posterio rwall thickness [1, 6]: 0.72 ± 0.06 mm
Posterior wall thickness in systole [1, 6]: 0.82 ± 0.11 mm
BNP [2, 7]: 103.21 ± 16.09 pg/mL
BNP [2, 8]: 101.08 ± 9.09 pg/mL
BNP [2, 9]: 91.67 ± 15.39 pg/mL
CK-MB [3, 7]: 15.36 ± 2.41 ng/mL
cTn-T [3, 7]: 153.56 ± 13.05 ng/L
CK-MB [3, 8]: 14.07 ± 1.33 ng/mL
cTn-T [3, 8]: 145.15 ± 15.79 ng/L
CK-MB [3, 9]: 13.39 ± 2.57 ng/mL
cTn-T [3, 9]: 136.64 ± 18.24 ng/L

O=c1c(Cc2ccc3c(c2)OCO3)coc2cc(O)cc(O)c12 [Formula I]
Post-diastolic posterio rwall thickness [1, 4]: 0.79 ± 0.09 mm
Posterior wall thickness in systole [1, 4]: 0.90 ± 0.06 mm
Post-diastolic posterio rwall thickness [1, 5]: 0.64 ± 0.02 mm
Posterior wall thickness in systole [1, 5]: 0.87 ± 0.11 mm
Post-diastolic posterio rwall thickness [1, 6]: 0.67 ± 0.08 mm
Posterior wall thickness in systole [1, 6]: 0.90 ± 0.16 mm
BNP [2, 7]: 112.93 ± 17.57 pg/mL
BNP [2, 8]: 117.59 ± 13.78 pg/mL
BNP [2, 9]: 102.97 ± 5.56 pg/mL
CK-MB [3, 7]: 15.73 ± 1.79 ng/mL
cTn-T [3, 7]: 167.25 ± 24.56 ng/L
CK-MB [3, 8]: 15.17 ± 1.63 ng/mL
cTn-T [3, 8]: 165.79 ± 23.78 ng/L
CK-MB [3, 9]: 15.72 ± 1.89 ng/mL
cTn-T [3, 9]: 164.52 ± 19.68 ng/L

CC(=O)S[C@@H]1CC2=CC(=O)CC[C@]2(C)[C@H]2CC[C@@]3(C)[C@@H](CC[C@@]34CCC(=O)O4)[C@H]12 [Spironolactone, reference compound]
Post-diastolic posterio rwall thickness [1, 10]: 0.81 ± 0.07 mm
Posterior wall thickness in systole [1, 10]: 1.01 ± 0.08 mm
BNP [2, 11]: 129.92 ± 15.60 pg/mL
CK-MB [3, 11]: 18.86 ± 1.40 ^ ng/mL
cTn-T [3, 11]: 169.17 ± 21.95 ng/L

CCCc1nc2c(C)cc(-c3nc4ccccc4n3C)cc2n1Cc1ccc(-c2ccccc2C(=O)O)cc1 [Telmisartan, reference compound]
Post-diastolic posterio rwall thickness [1, 12]: 0.65 ± 0.07 mm
Posterior wall thickness in systole [1, 12]: 0.79 ± 0.16 mm
BNP [2, 13]: 96.84 ± 7.34 pg/mL
CK-MB [3, 13]: 12.72 ± 1.09 ng/mL
cTn-T [3, 13]: 134.07 ± 17.50 ng/L
